{"source": "PubChem BioAssay AID2060493", "about": "(Molecular Pharmacology Branch, DTP, NCI, 2025)", "test_system": "616215-338-R-J1-PDC tumor spheroids, viability", "assay": "Anticancer human tumor 616215-338-R-J1-PDC patient-derived colon adenocarcinoma cell line growth inhibition [GQUAD]", "conditions": "spheroids with HUVEC and MSC; for IC50: curve of first compound; for viability, T/C: stronger effect = lower value", "procedure,_shortened": "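Multi-cell-type spheroids of tumor cells with HUVEC and mesenchymal stem cells, treated with drug combinations. Concentrations descend in half-log steps from near clinical Cmax, or from 10 microM where Cmax is unknown; viability read-out.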", "key": {"[1]": {"conditions": "second compound 0.0316 µM, first compound 0.0316 µM"}, "[2]": {"conditions": "second compound 0.0316 µM, first compound 0.316 µM"}, "[3]": {"conditions": "second compound 0.1 µM, first compound 0.0316 µM"}, "[4]": {"conditions": "second compound 0.1 µM, first compound 0.316 µM"}, "[5]": {"conditions": "second compound 0.316 µM, first compound 0.0316 µM"}, "[6]": {"conditions": "second compound 0.316 µM, first compound 0.316 µM"}, "[7]": {"conditions": "second compound 1 µM, first compound 0.0316 µM"}, "[8]": {"conditions": "second compound 1 µM, first compound 0.316 µM"}, "[9]": {"conditions": "second compound 3.16 µM, first compound 0.0316 µM"}, "[10]": {"conditions": "second compound 3.16 µM, first compound 0.316 µM"}, "[11]": {"conditions": "second compound 10 µM, first compound 0.0316 µM"}, "[12]": {"conditions": "second compound 10 µM, first compound 0.316 µM"}}, "data": [{"compound": "CC(C)(O)C1CCC(Nc2ccc3ncc(-c4cccc(C(F)(F)F)c4)n3n2)CC1", "note": "(centres undefined) + Cc1cnc(CNC(=O)c2c(=O)c3ccc(N4CCCN(C)CC4)nc3n3c2sc2ccccc23)cn1;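 also: spheroids exposed to agents for 7 days before readout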;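 as to viability, T/C: percent viability relative to DMSO vehicle control wells taken as 100%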", "values": [{"measurement": "IC50", "setting": "second compound 0.0316 µM", "result": 571, "unit": "nM"}, {"measurement": "IC50", "setting": "second compound 0.1 µM", "result": 352, "unit": "nM"}, {"measurement": "IC50", "setting": "second compound 0.316 µM", "result": "< 31.6", "unit": "nM"}, {"measurement": "IC50", "setting": "second compound 1 µM", "result": "< 31.6", "unit": "nM"}, {"measurement": "IC50", "setting": "second compound 3.16 µM", "result": "< 31.6", "unit": "nM"}, {"measurement": "IC50", "setting": "second compound 10 µM", "result": "< 31.6", "unit": "nM"}, {"measurement": "viability, T/C", "setting": "[1]", "result": 96.8, "unit": "%"}, {"measurement": "viability, T/C", "setting": "second compound 0.0316 µM, first compound 0.1 µM", "result": 86.9, "unit": "%"}, {"measurement": "viability, T/C", "setting": "[2]", "result": 82.1, "unit": "%"}, {"measurement": "viability, T/C", "setting": "second compound 0.0316 µM, first compound 1 µM", "result": 19.8, "unit": "%"}, {"measurement": "viability, T/C", "setting": "second compound 0.0316 µM, first compound 3.16 µM", "result": 1.65, "unit": "%"}, {"measurement": "viability, T/C", "setting": "second compound 0.0316 µM, first compound 10 µM", "result": 2.16, "unit": "%"}, {"measurement": "viability, T/C", "setting": "[3]", "result": 67.2, "unit": "%"}, {"measurement": "viability, T/C", "setting": "second compound 0.1 µM, first compound 0.1 µM", "result": 73.2, "unit": "%"}, {"measurement": "viability, T/C", "setting": "[4]", "result": 53.1, "unit": "%"}, {"measurement": "viability, T/C", "setting": "second compound 0.1 µM, first compound 1 µM", "result": 13.9, "unit": "%"}, {"measurement": "viability, T/C", "setting": "second compound 0.1 µM, first compound 3.16 µM", "result": 4.15, "unit": "%"}, {"measurement": "viability, T/C", "setting": "second compound 0.1 µM, first compound 10 µM", "result": 1.36, "unit": "%"}, {"measurement": "viability, T/C", "setting": "[5]", "result": 36.8, "unit": "%"}, {"measurement": "viability, T/C", "setting": "second compound 0.316 µM, first compound 0.1 µM", "result": 50.2, "unit": "%"}, {"measurement": "viability, T/C", "setting": "[6]", "result": 37.3, "unit": "%"}, {"measurement": "viability, T/C", "setting": "second compound 0.316 µM, first compound 1 µM", "result": 14.8, "unit": "%"}, {"measurement": "viability, T/C", "setting": "second compound 0.316 µM, first compound 3.16 µM", "result": 0.03, "unit": "%"}, {"measurement": "viability, T/C", "setting": "second compound 0.316 µM, first compound 10 µM", "result": 2.26, "unit": "%"}, {"measurement": "viability, T/C", "setting": "[7]", "result": 32.5, "unit": "%"}, {"measurement": "viability, T/C", "setting": "second compound 1 µM, first compound 0.1 µM", "result": 32.1, "unit": "%"}, {"measurement": "viability, T/C", "setting": "[8]", "result": 28.7, "unit": "%"}, {"measurement": "viability, T/C", "setting": "second compound 1 µM, first compound 1 µM", "result": 13.3, "unit": "%"}, {"measurement": "viability, T/C", "setting": "second compound 1 µM, first compound 3.16 µM", "result": 0.05, "unit": "%"}, {"measurement": "viability, T/C", "setting": "second compound 1 µM, first compound 10 µM", "result": 0.06, "unit": "%"}, {"measurement": "viability, T/C", "setting": "[9]", "result": 20.9, "unit": "%"}, {"measurement": "viability, T/C", "setting": "second compound 3.16 µM, first compound 0.1 µM", "result": 24.2, "unit": "%"}, {"measurement": "viability, T/C", "setting": "[10]", "result": 29.9, "unit": "%"}, {"measurement": "viability, T/C", "setting": "second compound 3.16 µM, first compound 1 µM", "result": 3.87, "unit": "%"}, {"measurement": "viability, T/C", "setting": "second compound 3.16 µM, first compound 3.16 µM", "result": 0.1, "unit": "%"}, {"measurement": "viability, T/C", "setting": "second compound 3.16 µM, first compound 10 µM", "result": 0.12, "unit": "%"}, {"measurement": "viability, T/C", "setting": "[11]", "result": 19.6, "unit": "%"}, {"measurement": "viability, T/C", "setting": "second compound 10 µM, first compound 0.1 µM", "result": 24.7, "unit": "%"}, {"measurement": "viability, T/C", "setting": "[12]", "result": 27.8, "unit": "%"}, {"measurement": "viability, T/C", "setting": "second compound 10 µM, first compound 1 µM", "result": 0.18, "unit": "%"}, {"measurement": "viability, T/C", "setting": "second compound 10 µM, first compound 3.16 µM", "result": 0.22, "unit": "%"}, {"measurement": "viability, T/C", "setting": "second compound 10 µM, first compound 10 µM", "result": 0.2, "unit": "%"}]}, {"compound": "CCc1c2c(nc3ccc(O)cc13)-c1cc3c(c(=O)n1C2)COC(=O)[C@]3(O)CC", "note": "+ Cc1cnc(CNC(=O)c2c(=O)c3ccc(N4CCCN(C)CC4)nc3n3c2sc2ccccc23)cn1", "values": [{"measurement": "IC50", "setting": "second compound 0.0316 µM", "result": 9.82, "unit": "nM"}, {"measurement": "IC50", "setting": "second compound 0.1 µM", "result": 5.05, "unit": "nM"}, {"measurement": "IC50", "setting": "second compound 0.316 µM", "result": "< 0.999", "unit": "nM"}, {"measurement": "IC50", "setting": "second compound 1 µM", "result": "< 0.999", "unit": "nM"}, {"measurement": "IC50", "setting": "second compound 3.16 µM", "result": "< 0.999", "unit": "nM"}, {"measurement": "IC50", "setting": "second compound 10 µM", "result": "< 0.999", "unit": "nM"}, {"measurement": "viability, T/C", "setting": "second compound 0.0316 µM, first compound 0.000999 µM", "result": 105, "unit": "%"}, {"measurement": "viability, T/C", "setting": "second compound 0.0316 µM, first compound 0.00316 µM", "result": 79.5, "unit": "%"}, {"measurement": "viability, T/C", "setting": "second compound 0.0316 µM, first compound 0.00999 µM", "result": 47.5, "unit": "%"}, {"measurement": "viability, T/C", "setting": "[1]", "result": 30.2, "unit": "%"}, {"measurement": "viability, T/C", "setting": "second compound 0.0316 µM, first compound 0.0999 µM", "result": 22.1, "unit": "%"}, {"measurement": "viability, T/C", "setting": "[2]", "result": 12.9, "unit": "%"}, {"measurement": "viability, T/C", "setting": "second compound 0.1 µM, first compound 0.000999 µM", "result": 62.2, "unit": "%"}, {"measurement": "viability, T/C", "setting": "second compound 0.1 µM, first compound 0.00316 µM", "result": 58.3, "unit": "%"}, {"measurement": "viability, T/C", "setting": "second compound 0.1 µM, first compound 0.00999 µM", "result": 39.8, "unit": "%"}, {"measurement": "viability, T/C", "setting": "[3]", "result": 25.6, "unit": "%"}, {"measurement": "viability, T/C", "setting": "second compound 0.1 µM, first compound 0.0999 µM", "result": 18.2, "unit": "%"}, {"measurement": "viability, T/C", "setting": "[4]", "result": 9.44, "unit": "%"}, {"measurement": "viability, T/C", "setting": "second compound 0.316 µM, first compound 0.000999 µM", "result": 49.3, "unit": "%"}, {"measurement": "viability, T/C", "setting": "second compound 0.316 µM, first compound 0.00316 µM", "result": 37, "unit": "%"}, {"measurement": "viability, T/C", "setting": "second compound 0.316 µM, first compound 0.00999 µM", "result": 24.6, "unit": "%"}, {"measurement": "viability, T/C", "setting": "[5]", "result": 31.4, "unit": "%"}, {"measurement": "viability, T/C", "setting": "second compound 0.316 µM, first compound 0.0999 µM", "result": 13.5, "unit": "%"}, {"measurement": "viability, T/C", "setting": "[6]", "result": 6.95, "unit": "%"}, {"measurement": "viability, T/C", "setting": "second compound 1 µM, first compound 0.000999 µM", "result": 38.1, "unit": "%"}, {"measurement": "viability, T/C", "setting": "second compound 1 µM, first compound 0.00316 µM", "result": 19.4, "unit": "%"}, {"measurement": "viability, T/C", "setting": "second compound 1 µM, first compound 0.00999 µM", "result": 24.9, "unit": "%"}, {"measurement": "viability, T/C", "setting": "[7]", "result": 18.7, "unit": "%"}, {"measurement": "viability, T/C", "setting": "second compound 1 µM, first compound 0.0999 µM", "result": 13.7, "unit": "%"}, {"measurement": "viability, T/C", "setting": "[8]", "result": 0.14, "unit": "%"}, {"measurement": "viability, T/C", "setting": "second compound 3.16 µM, first compound 0.000999 µM", "result": 20, "unit": "%"}, {"measurement": "viability, T/C", "setting": "second compound 3.16 µM, first compound 0.00316 µM", "result": 25.2, "unit": "%"}, {"measurement": "viability, T/C", "setting": "second compound 3.16 µM, first compound 0.00999 µM", "result": 21.1, "unit": "%"}, {"measurement": "viability, T/C", "setting": "[9]", "result": 14.4, "unit": "%"}, {"measurement": "viability, T/C", "setting": "second compound 3.16 µM, first compound 0.0999 µM", "result": 17.8, "unit": "%"}, {"measurement": "viability, T/C", "setting": "[10]", "result": 0.15, "unit": "%"}, {"measurement": "viability, T/C", "setting": "second compound 10 µM, first compound 0.000999 µM", "result": 23.8, "unit": "%"}, {"measurement": "viability, T/C", "setting": "second compound 10 µM, first compound 0.00316 µM", "result": 22, "unit": "%"}, {"measurement": "viability, T/C", "setting": "second compound 10 µM, first compound 0.00999 µM", "result": 23.6, "unit": "%"}, {"measurement": "viability, T/C", "setting": "[11]", "result": 5.75, "unit": "%"}, {"measurement": "viability, T/C", "setting": "second compound 10 µM, first compound 0.0999 µM", "result": 0.31, "unit": "%"}, {"measurement": "viability, T/C", "setting": "[12]", "result": 0.21, "unit": "%"}]}]}
